Oligonucleotides are written 5' to 3', each unit as a sugar letter and its base; * is a phosphorothioate linkage, no mark a phosphodiester; rarer units and linkages stand in square brackets, end groups in braces. Plain capitals give the bases only. d = 2'-deoxy (DNA); r = 2'-OH (RNA)
Test: reporter assay of Huesken 2005
Details: siRNA
“sense rCrUrUrArGrUrCrCrCrCrUrCrUrUrUrCrUrGrGdTdT / antisense rCrCrArGrArArArGrArGrGrGrGrArCrUrArArGdGdG” gave a normalised inhibition (eCFP-eYFP dual reporter) of 87.5%.
Substance “sense rCrUrUrCrUrGrArGrCrArArUrArUrCrCrCrCrAdTdT / antisense rUrGrGrGrGrArUrArUrUrGrCrUrCrArGrArArGdTdT” has a normalised inhibition (eCFP-eYFP dual reporter) of 93%.
Substance “sense rCrUrUrGrArGrGrGrArGrArGrUrUrGrUrArCrCdTdT / antisense rGrGrUrArCrArArCrUrCrUrCrCrCrUrCrArArGdCdC” has a normalised inhibition (eCFP-eYFP dual reporter) of 63.4%.
“sense rCrUrUrGrCrCrUrCrUrGrArGrGrArArUrGrArGdTdT / antisense rCrUrCrArUrUrCrCrUrCrArGrArGrGrCrArArGdAdA” showed a normalised inhibition (eCFP-eYFP dual reporter) of 59.8%.
“sense rGrArGrArGrArGrCrArArCrArGrGrGrUrArUrGdTdT / antisense rCrArUrArCrCrCrUrGrUrUrGrCrUrCrUrCrUrCdCdC” showed a normalised inhibition (eCFP-eYFP dual reporter) of 85.5%.
Work on “sense rGrArGrGrArCrUrCrCrUrUrCrCrUrUrCrUrCrUdTdT / antisense rArGrArGrArArGrGrArArGrGrArGrUrCrCrUrCdTdG” yielded a normalised inhibition (eCFP-eYFP dual reporter) of 81.2%.
Work on “sense rGrArGrUrCrArArArGrGrUrCrArCrCrArGrArGdTdT / antisense rCrUrCrUrGrGrUrGrArCrCrUrUrUrGrArCrUrCdCdC” yielded a normalised inhibition (eCFP-eYFP dual reporter) of 85.9%.
“sense rGrArUrUrCrCrArCrCrArGrUrUrUrArGrArArGdTdT / antisense rCrUrUrCrUrArArArCrUrGrGrUrGrGrArArUrCdTdG” gave a normalised inhibition (eCFP-eYFP dual reporter) of 84%.
“sense rGrArUrUrUrArGrGrCrUrUrGrArGrGrGrArGrAdTdT / antisense rUrCrUrCrCrCrUrCrArArGrCrCrUrArArArUrCdCdA” showed a normalised inhibition (eCFP-eYFP dual reporter) of 90.8%.
In the case of “sense rGrCrArArCrArGrGrGrUrArUrGrCrArCrArCrCdTdT / antisense rGrGrUrGrUrGrCrArUrArCrCrCrUrGrUrUrGrCdTdC”, the normalised inhibition (eCFP-eYFP dual reporter) is reported as 72.5%.
Work on “sense rGrCrCrCrUrCrCrUrGrUrGrArCrCrUrCrCrArUdTdT / antisense rArUrGrGrArGrGrUrCrArCrArGrGrArGrGrGrCdAdC” yielded a normalised inhibition (eCFP-eYFP dual reporter) of 89%.
Substance “sense rGrCrCrUrArCrGrGrGrArGrUrCrArArArGrGrUdTdT / antisense rArCrCrUrUrUrGrArCrUrCrCrCrGrUrArGrGrCdGdT” has a normalised inhibition (eCFP-eYFP dual reporter) of 91.5%.
Substance “sense rGrCrCrUrUrCrArUrCrCrArCrCrUrUrCrCrCrUdTdT / antisense rArGrGrGrArArGrGrUrGrGrArUrGrArArGrGrCdAdG” has a normalised inhibition (eCFP-eYFP dual reporter) of 85.7%.
Substance “sense rGrGrCrArGrArCrUrArCrArGrUrUrUrCrUrUrUdTdT / antisense rArArArGrArArArCrUrGrUrArGrUrCrUrGrCrCdAdG” has a normalised inhibition (eCFP-eYFP dual reporter) of 86%.
With “sense rGrGrCrArGrCrGrGrGrArGrArGrArGrCrArArCdTdT / antisense rGrUrUrGrCrUrCrUrCrUrCrCrCrGrCrUrGrCrCdCdC” the normalised inhibition (eCFP-eYFP dual reporter) was 61.9%.
For “sense rGrGrCrArGrGrArGrArUrArGrCrCrCrArGrGrGdTdT / antisense rCrCrCrUrGrGrGrCrUrArUrCrUrCrCrUrGrCrCdAdC”, the normalised inhibition (eCFP-eYFP dual reporter) was 67.7%.
For “sense rGrGrCrUrCrUrGrUrCrUrCrUrCrUrGrCrCrArCdTdT / antisense rGrUrGrGrCrArGrArGrArGrArCrArGrArGrCrCdAdC”, the normalised inhibition (eCFP-eYFP dual reporter) was 45.8%.
With “sense rGrGrCrUrUrUrGrGrArGrCrCrCrUrUrCrUrGrCdTdT / antisense rGrCrArGrArArGrGrGrCrUrCrCrArArArGrCrCdTdA” the normalised inhibition (eCFP-eYFP dual reporter) was 73.7%.
Work on “sense rGrGrUrGrGrCrUrCrUrGrUrCrUrCrUrCrUrGrCdTdT / antisense rGrCrArGrArGrArGrArCrArGrArGrCrCrArCrCdGdG” yielded a normalised inhibition (eCFP-eYFP dual reporter) of 71.5%.
Work on “sense rGrUrCrCrCrUrGrArGrGrArGrCrCrCrUrUrArGdTdT / antisense rCrUrArArGrGrGrCrUrCrCrUrCrArGrGrGrArCdGdG” yielded a normalised inhibition (eCFP-eYFP dual reporter) of 85.8%.
With “sense rGrUrCrGrUrUrCrGrUrGrGrUrCrGrUrUrUrCrAdTdT / antisense rUrGrArArArCrGrArCrCrArCrGrArArCrGrArCdCdA” the normalised inhibition (eCFP-eYFP dual reporter) was 39.3%.
With “sense rUrArCrUrCrUrUrGrCrUrCrUrCrUrGrGrArGrUdTdT / antisense rArCrUrCrCrArGrArGrArGrCrArArGrArGrUrAdGdA” the normalised inhibition (eCFP-eYFP dual reporter) was 57.9%.
“sense rUrArGrGrCrUrUrGrArGrGrGrArGrArGrUrUrGdTdT / antisense rCrArArCrUrCrUrCrCrCrUrCrArArGrCrCrUrAdAdA” gave a normalised inhibition (eCFP-eYFP dual reporter) of 76.7%.
Work on “sense rUrCrArUrUrGrUrUrCrCrUrGrUrGrArArCrUrGdTdT / antisense rCrArGrUrUrCrArCrArGrGrArArCrArArUrGrAdAdA” yielded a normalised inhibition (eCFP-eYFP dual reporter) of 66.7%.
“sense rUrCrCrCrCrArUrArGrGrCrUrUrUrGrGrArGrCdTdT / antisense rGrCrUrCrCrArArArGrCrCrUrArUrGrGrGrGrAdTdA” gave a normalised inhibition (eCFP-eYFP dual reporter) of 35.8%.
In the case of “sense rUrCrCrCrCrUrGrCrCrUrGrUrCrArGrGrGrGrUdTdT / antisense rArCrCrCrCrUrGrArCrArGrGrCrArGrGrGrGrAdAdA”, the normalised inhibition (eCFP-eYFP dual reporter) is reported as 42.2%.
“sense rUrCrCrCrUrGrCrUrUrCrUrGrArGrArCrUrUrCdTdT / antisense rGrArArGrUrCrUrCrArGrArArGrCrArGrGrGrAdAdG” gave a normalised inhibition (eCFP-eYFP dual reporter) of 67.9%.
“sense rUrGrArArGrCrUrGrGrUrCrUrGrUrGrGrCrArGdTdT / antisense rCrUrGrCrCrArCrArGrArCrCrArGrCrUrUrCrAdGdA” gave a normalised inhibition (eCFP-eYFP dual reporter) of 44.4%.
“sense rUrGrArGrArCrUrUrCrCrArUrCrUrCrUrArGrCdTdT / antisense rGrCrUrArGrArGrArUrGrGrArArGrUrCrUrCrAdGdA” gave a normalised inhibition (eCFP-eYFP dual reporter) of 32.9%.
Substance “sense rUrGrCrCrCrArUrUrGrUrGrUrUrCrCrCrUrUrGdTdT / antisense rCrArArGrGrGrArArCrArCrArArUrGrGrGrCrAdGdG” has a normalised inhibition (eCFP-eYFP dual reporter) of 95.4%.
In the case of “sense rUrGrCrCrUrCrCrCrUrUrGrArGrGrCrGrUrCrUdTdT / antisense rArGrArCrGrCrCrUrCrArArGrGrGrArGrGrCrAdAdT”, the normalised inhibition (eCFP-eYFP dual reporter) is reported as 34.1%.
With “sense rUrGrGrArUrUrUrArGrGrCrUrUrGrArGrGrGrAdTdT / antisense rUrCrCrCrUrCrArArGrCrCrUrArArArUrCrCrAdGdA” the normalised inhibition (eCFP-eYFP dual reporter) was 81.4%.
Work on “sense rUrGrGrCrUrCrUrGrUrCrUrCrUrCrUrGrCrCrAdTdT / antisense rUrGrGrCrArGrArGrArGrArCrArGrArGrCrCrAdCdC” yielded a normalised inhibition (eCFP-eYFP dual reporter) of 76.5%.
In the case of “sense rUrGrUrGrArCrCrUrCrCrArUrCrUrArCrUrCrUdTdT / antisense rArGrArGrUrArGrArUrGrGrArGrGrUrCrArCrAdGdG”, the normalised inhibition (eCFP-eYFP dual reporter) is reported as 96.8%.
In the case of “sense rUrGrUrGrGrArCrUrCrUrGrArGrArArGrArArAdTdT / antisense rUrUrUrCrUrUrCrUrCrArGrArGrUrCrCrArCrAdAdG”, the normalised inhibition (eCFP-eYFP dual reporter) is reported as 85.5%.
For “sense rUrGrUrGrUrGrCrUrUrCrCrUrCrUrCrCrCrArUdTdT / antisense rArUrGrGrGrArGrArGrGrArArGrCrArCrArCrAdGdT”, the normalised inhibition (eCFP-eYFP dual reporter) was 104%.
“sense rUrGrUrUrCrCrUrUrGrUrGrGrArCrUrCrUrGrAdTdT / antisense rUrCrArGrArGrUrCrCrArCrArArGrGrArArCrAdTdC” gave a normalised inhibition (eCFP-eYFP dual reporter) of 94.3%.

— the OligoGym collection
Further: test concentration or dose not given here.
